Measured values from US5989596A, “Compositions comprising a depigmenting agent consisting of sulfites and metabisulfites and plant extracts for use in inhibiting melanogenesis or for depigmenting” (Coletica, priority 1997, dated 1999).

Tests used:
human melanocytes = details: J. Soc. Cosmeti. Chem. 42, 361-368 (1991); cited from earlier work
isolated tyrosinase = assay: In vitro test of the inhibition of isolated tyrosinase (rate of dopachrome formation from L-Dopa, 475 nm); format: biochemical
Excerpt: It is known that tyrosinase is capable of catalyzing the formation of L-Dopaquinone and then dopachrome from L-Dopa. Now, dopachrome is a colored compound whose appearance is possible to follow by UV visible spectrophotometry at 475 nm. The use of an active capable of modifying the enzymatic activity manifests itself by a variation of the rate of appearance of this colored molecule.
The ratio of the rates of formation of dopachrome enable precisely determining the activations or the inhibitions obtained with the different molecules tested.
The anti-tyrosinase activity was measured, for various concentrations of this composition, by simple dilution with demineralized water.

[1] = Organoleptic (smell) and stability tests on storage, 4 weeks at 45° C.; format: physicochemical; details: pH 6.5, 4 weeks at 45° C.
Description: Organoleptic tests have even been carried out on 5% sodium sulfite solutions or with 10% of a mulberry extract or 10 or with 20% with a lemon extract. These tests were led over 4 weeks at 45° C. at pH 5.5 and 6.5.
Also, organoleptic tests are then carried out on 5% sodium metabisulfite solutions with or without either 20% of a saxifrage extract or 10% of a grapefruit extract. These tests were led over 4 weeks at 45° C. at pH 5.5 and 6.5.
Organoleptic tests were also carried out on 5% potassium sulfite solutions with or without either 20% of a grape extract, or 10% of an oughon extract. It is to be noted that oughon is also called Scutelaria. These tests were led over 4 weeks at 45° C. at pH 5.5 and 6.5.
Organoleptic tests are then carried out on 5% potassium metabisulfite solutions with or without either 10% of a saxifrage extract, or 5% of an oughon extract +10% of a grapefruit extract. These tests were also led over 4 weeks at 45° C. at pH 5.5 and 6.5.

[2] = biological target: T1, endogenous tyrosinase in melanocytes of human skin explants (Homo sapiens, UniProt P14679); assay: Ex vivo tissue model on human skin explant, histochemical L-DOPA reaction (anti-tyrosinase activity); format: cell-based; details: 0.55% (w/v), with L-DOPA 0.05 M, 15 hours at 37° C.
T1 construct: oxidation of exogenous L-DOPA by endogenous tyrosinase; from tissue; host or cells: human abdominal skin explants from plastic surgery (melanocytes)
T1 sequence (P14679 19-529): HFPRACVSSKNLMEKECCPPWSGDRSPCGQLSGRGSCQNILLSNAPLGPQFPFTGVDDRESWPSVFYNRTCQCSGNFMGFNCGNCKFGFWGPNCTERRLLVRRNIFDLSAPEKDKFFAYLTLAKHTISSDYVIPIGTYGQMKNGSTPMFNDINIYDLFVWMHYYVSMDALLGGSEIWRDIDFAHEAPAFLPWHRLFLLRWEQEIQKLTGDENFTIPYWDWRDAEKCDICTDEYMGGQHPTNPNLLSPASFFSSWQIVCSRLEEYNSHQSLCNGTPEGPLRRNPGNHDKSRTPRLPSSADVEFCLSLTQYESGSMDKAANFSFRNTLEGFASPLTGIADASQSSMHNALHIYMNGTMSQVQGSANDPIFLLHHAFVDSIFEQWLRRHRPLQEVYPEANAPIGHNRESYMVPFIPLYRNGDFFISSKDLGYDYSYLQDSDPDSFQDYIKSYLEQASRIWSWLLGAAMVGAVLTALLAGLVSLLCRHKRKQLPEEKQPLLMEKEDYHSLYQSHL
Description: The oxidation of L-Dopa by the tyrosinase produces, in the melanocytes, a black pigment precursor of melanin which is easily detectable by optical microscopy with white light. The tyrosinase activity is determined by the intensity of the calorimetric reaction obtained.
A positive control and a negative control are also carried out in parallel.
The various products in the study are incubated in the presence of L-DOPA (0.05 M) for 15 hours at 37° C.
After fixing and inclusion in paraffin, the sections are colored with hemalun/eosin/saffron and with cresyl violet, they are then observed in white light by optical microscopy.
The tyrosinase activity is determined by the intensity of the calorimetric reaction obtained.

Row | SMILES | IC50 (concentration for which half of the cells placed in culture are no longer living) (human melanocytes) [µg/mL] | Results (inhibition) of tyrosinase (isolated tyrosinase; concentration level 0.01%) | Results (inhibition) of tyrosinase (isolated tyrosinase; concentration level 0.1%) [%] | Results (inhibition) of tyrosinase (isolated tyrosinase; concentration level 1%) [%] | Results (inhibition) of tyrosinase (isolated tyrosinase; concentration level 10%) [%] | tyrosinase inhibition (in words) (isolated tyrosinase; concentration 0.01%) | smell (organoleptic test) [1] | inhibition of the formation of melanic pigments [2]
1 | O=C1O[C@H]([C@@H](O)CO)C(O)=C1O [ascorbic acid] | 880 |  |  |  |  |  |  | 
2 | O=S([O-])S(=O)(=O)[O-].[K+].[K+] [potassium metabisulfite] |  | more than 90% | 93.63 | 100 | 100 |  |  | 
3 | O=S([O-])[O-].[Na+].[Na+] [sodium sulfite] |  | 93.7% | 100 | 100 | 100 |  |  | 
4 | O=S([O-])S(=O)(=O)[O-].[Na+].[Na+] [sodium metabisulfite] |  |  | 100 | 100 | 100 | almost total | very strong smell | 
5 | O=S([O-])[O-].[K+].[K+] [potassium sulfite] |  | more than 80% | 98.10 | 92.7 | 100 |  | very strong smell | 
6 | Oc1ccc(O)cc1 [hydroquinone] |  |  |  |  |  |  |  | totally inhibits
